From patent US5763441A, “Compounds for the treatment of disorders related to vasculogenesis and/or angiogenesis” (Sugen, Inc., priority 1995, dated 1998)

What was measured:
Calu-6 = assay: Tumor xenograft growth inhibition, Calu-6 (lung); assay type: in vivo, human
Description: The ability of one of the compounds of the present invention, leflunomide (Compound 40), to inhibit ovarian, melanoma, prostate, lung and mammary tumor cell lines established as SC xenografts was examined. […]
(§1) The tumor cells were implanted subcutaneously into the indicated strains of mice. Treatment was initiated on day 1 post implantation unless otherwise indicated (e.g. treatment of the SCID mouse related to the A375 melanoma cell line began on Day 9). Eight (8) to ten (10) mice comprised each test group.
(§2) Animals. Female athymic mice (BALB/c, nu/nu), BALB/c mice, Wistar rats and Fisher 344 rats were obtained from Simonsen Laboratories (Gilroy, Calif.). Female A/I mice were obtained from Jackson Laboratory (Bar Harbor, Me.). DA rats were obtained from B&K Universal, Inc. (Fremont, Calif.). Athymic R/Nu rats, DBA/2N mice, and BALB/c mice were obtained from Harlan Sprague Dawley (Indianapolis, Ind.). Female C57BL/6 mice were obtained from Taconic (Germantown, N.Y.). All animals were maintained under clean-room conditions in Micro-isolator cages with Alpha-dri bedding. They received sterile rodent chow and water ad libitum.
(§3) Subcutaneous Xenograft Model. Cell lines were grown in appropriate medium as described (See Section 6). Cells were harvested at or near confluency with 0.05% Trypsin-EDTA and pelleted at 450×g for 10 min. Pellets were resuspended in sterile PBS or media (without FBS) to a suitable concentration indicated in the Figure legends and the cells were implanted into the hindflank of mice. Tumor growth was measured over 3 to 6 weeks using venier calipers tumor volumes were calculated as a product of length x width x height unless otherwise indicated. P values were calculated using the Students' t-test. su101 in 50-100 uL excipient (dimethylsulfoxide, PBTE, PBTE6C:D5W, or PBTE:D5W) was delivered by IP injection at concentrations indicated in the Figure legends.

FLK-1 receptor = biological target: T1, FLK-1 receptor (Mus musculus, UniProt P35918); assay: ELISA assay to measure kinase activity of FLK-1 receptor in FLK-1/NIH cells; assay type: cell-based, murine
T1 construct: expressed in transfected cells; host or cells: NIH3T3C7#3 cells (FLK-1 infected NIH3T3)
Description: ELISA Assay To Measure Kinase Activity Of FLK-1 Receptor In FLK-1/NIH Cells
An ELISA assay was conducted to measure the kinase activity of the FLK-1 receptor and more specifically, the inhibition or activiation of protein tyrosine kinase activity on the FLK-1 receptor.
k. NIH3T3C7#3 Cells (FLK-1 infected cells);
Protocol. The following protocol was used to conduct the ELISA Assay:
1. Coat Corning 96-well elisa plates with 1.0 ug per well Cappel Anti-rabbit IgG antibody in 0.1M Na2CO3 pH 9.6. Bring final volume to 150 ul per well. Coat plates overnight at 4° C. Plates can be kept up to two weeks when stored at 4° C.
2. Grow cells in 30 ml of Growth media 9DMEM. 2.0 mM L-Glutamine, 10% FBS) until confluent in 150 cm tissue culture dishes at 37° C., 5% CO2.
3. Harvest cells by tyrpsination and seed in Corning 25850 polystyrene 96-well roundbottom cell plates, 25.000 cells/well in 200 uL of growth media.
4. Grow cells at least one day at 37° C., 5% CO2.
5. Wash cells with D-PBS 1X.
6. Add 200 ul/well of starvation media (DMEM, 2.0 mM l-Glutamine, 0.1% FBS). Incubate overnight at 37° C., 5% CO2.
7. Dilute Compounds/Extracts 1:20 in polyproplyene 96 well plates using starvation media. Dilute dimethylsulfoxide 1:20 for use in control wells.
8. Remove starvation media from 96 well cell culture plates and add 162 ul of fresh starvation media to each well.
9. Add 18 ul of 1:20 diluted Compound/Extract dilution (from step #7) to each well plus the 1:20 dimethylsulfoxide dilution to the control wells (+/-VEGF), for a final dilution of 1:200 after cell stimulation. Final dimethylsulfoxide is 0.5%. Incubate the plate at 37° C., 5% CO2 for two hours.
10. Remove unbound antibody from Elisa plates by inverting plate to remove liquid. Wash 3 times with TBSW+0.5% Ethanolamine, pH 7.0. Pat the plate on a paper towel to remove excess liquid and bubbles.
11. Block plates with TBSW+0.5% Ethanolamine, pH 7.0. 150 ul per well. Incubate plate thirty minutes while shaking on a microtiter plate shaker.
12. Wash plate 3 times as described in step 10.
13. Add 0.5 ug/well affinity purified anti-flk-1 polyclonal rabbit antiserum. Bring final volume to 150 ul/well with TBSW+0.5k Ethanolamine pH 7.0. Incubate plate for thirty minutes while shaking.
14. Add 180 μl starvation medium to the cells and stimulate cells with 20 ul/well 10.0 mM Sodium Ortho Vanadate and 500 ng/ml VEGF (resulting in a final concentration of 1.0 mM Sodium Ortho Vanadate and 50 ng/ml VEGF per well) for eight minutes at 37° C., 5% CO2. Negative control wells receive only starvation medium.
15. After eight minutes, media are removed from the cells and washed one time with 200 ul/well PBS.
16. Lyse cells in 150 ul/well HNTG while shaking at room temperature for five minutes. HNTG formulation includes sodium ortho vanadate, sodium pyro phosphate and EDTA.
17. Wash Elisa plate three times as described in step 10.
18. Transfer cell lysates from the cell plate to elisa plate and incubate while shaking for two hours. To transfer cell lysate pipette up and down while scrapping the wells.
19. Wash plate three times as described in step 10.
20. Incubate Elisa plate with 0.02 ug/well UB40 in TBSW+05% ethanolamine. Bring final volume to 150 ul/well. Incubate while shaking for 30 minutes.
21. Wash plate three times as described in step 10.
22. Incubate elisa plate with 1:10,000 diluted EIA grade Goat anti-mouse IgG conjugated horseradish peroxidase in TBSW+0.5% ethanolamine, pH 7.0. Bring final volume to 150 ul/well. Incubate while shaking for thirty minutes.
23. Wash plate as described in step 10.
24. Add 100 ul of ABTS/H202 solution to well. Incubate ten minutes while shaking.
25. Add 100 ul of 0.2M HCL for 0.1M HCL final to stop the colordevelopment reaction. Shake 1 minute at room temperature. Remove bubbles with slow stream of air and read the ELISA plate in an ELISA plate reader at 410 nm.

A375 = assay: Tumor xenograft growth inhibition, A375 (melanoma); assay type: in vivo, human; conditions: for % Inhibition (day): day 31
Description: (§4) The ability of one of the compounds of the present invention, leflunomide (Compound 40), to inhibit ovarian, melanoma, prostate, lung and mammary tumor cell lines established as SC xenografts was examined. These studies were conducted using doses ranging from 12 to 20 mg/kg/day.
as §1, §2, §3

PA-1 = assay: Tumor xenograft growth inhibition, PA-1 (ovarian); assay type: in vivo, human
Description: as §4, §1
Animals. Female athymic mice (BALB/c, nu/nu), BALB/c mice, Wistar rats and Fisher 344 rats were obtained from Simonsen Laboratories (Gilroy, Calif.). Female A/I mice were obtained from Jackson Laboratory (Bar Harbor, Me.). DA rats were obtained from B&K Universal, Inc. (Fremont, Calif.). Athymic R/Nu rats, DBA/2N mice, and BALB/c mice were obtained from Harlan Sprague Dawley (Indianapolis, Ind.). […]
Subcutaneous Xenograft Model. […] Tumor growth was measured over 3 to 6 weeks using venier calipers tumor volumes were calculated as a product of length x width x height unless otherwise indicated. P values were calculated using the Students' t-test. su101 in 50-100 uL excipient (dimethylsulfoxide, PBTE, PBTE6C:D5W, or PBTE:D5W) was delivered by IP injection at concentrations indicated in the Figure legends.

PC-3 = assay: Tumor xenograft growth inhibition, PC-3 (prostate); assay type: in vivo, human
Description: as §4, §1, §2, §3

[1] = test system: VEGF-induced "reddening" response and subsequent swelling (FLK-1 receptor); assay: In vivo VEGF pellet model; design: species or system nude mice (Balb/C athymic nu/nu); conditions: scored at 24 hours and 48 hours; drug in methylcellulose disc near VEGF pellet
Description: In this model, VEGF is packaged into a time-release pellet and implanted subcutaneously on the abdomen of nude mice to induce a `reddening` response and subsequent swelling around the pellet. Potential FLK-1 inhibitors may then be implanted in methylcellulose near the VEGF pellet ito determine whether such inhibitor may be used to inhibit the "reddening" response and subsequent swelling.
1) VEGF--human recombinant lyophilized product is commercially may be obtained from Peprotech, Inc., Princeton Business Park, G2; P.O. box 275, Rocky Hill, N.J. 08553.
2) VEGF packaged into 21 day release pellets were obtained from Innovative Research of America, using patented matrix driven delivery system. Pellets were packaged at […], 0.21, or 2.1 μg VEGF/pellet. These doses approximate 10 and 100 ng/day release of VEGF. (Innovative Research of America, 3361 Executive Parkway, P.O. box 2746, Toledo, Ohio 43606)
Protocol. The following protocol was then followed to conduct the VEGF pellet model:
1) VEGF, purchased from Peprotech, was sent to Innovative Research for Custom Pellet preparation;
2) Methylcellulose prepared at 1.5% (w/v) in sterile water;
3) Drugs solublized in methanol (usual concentration range=10 to 20 mg/ml);
4) Place sterile parafilm in sterile 10 cm plates; […]
9) Mice were scored at 24 hours and 48 hours for reddening and swelling response. […]

T1 sequence (P35918 20-1345): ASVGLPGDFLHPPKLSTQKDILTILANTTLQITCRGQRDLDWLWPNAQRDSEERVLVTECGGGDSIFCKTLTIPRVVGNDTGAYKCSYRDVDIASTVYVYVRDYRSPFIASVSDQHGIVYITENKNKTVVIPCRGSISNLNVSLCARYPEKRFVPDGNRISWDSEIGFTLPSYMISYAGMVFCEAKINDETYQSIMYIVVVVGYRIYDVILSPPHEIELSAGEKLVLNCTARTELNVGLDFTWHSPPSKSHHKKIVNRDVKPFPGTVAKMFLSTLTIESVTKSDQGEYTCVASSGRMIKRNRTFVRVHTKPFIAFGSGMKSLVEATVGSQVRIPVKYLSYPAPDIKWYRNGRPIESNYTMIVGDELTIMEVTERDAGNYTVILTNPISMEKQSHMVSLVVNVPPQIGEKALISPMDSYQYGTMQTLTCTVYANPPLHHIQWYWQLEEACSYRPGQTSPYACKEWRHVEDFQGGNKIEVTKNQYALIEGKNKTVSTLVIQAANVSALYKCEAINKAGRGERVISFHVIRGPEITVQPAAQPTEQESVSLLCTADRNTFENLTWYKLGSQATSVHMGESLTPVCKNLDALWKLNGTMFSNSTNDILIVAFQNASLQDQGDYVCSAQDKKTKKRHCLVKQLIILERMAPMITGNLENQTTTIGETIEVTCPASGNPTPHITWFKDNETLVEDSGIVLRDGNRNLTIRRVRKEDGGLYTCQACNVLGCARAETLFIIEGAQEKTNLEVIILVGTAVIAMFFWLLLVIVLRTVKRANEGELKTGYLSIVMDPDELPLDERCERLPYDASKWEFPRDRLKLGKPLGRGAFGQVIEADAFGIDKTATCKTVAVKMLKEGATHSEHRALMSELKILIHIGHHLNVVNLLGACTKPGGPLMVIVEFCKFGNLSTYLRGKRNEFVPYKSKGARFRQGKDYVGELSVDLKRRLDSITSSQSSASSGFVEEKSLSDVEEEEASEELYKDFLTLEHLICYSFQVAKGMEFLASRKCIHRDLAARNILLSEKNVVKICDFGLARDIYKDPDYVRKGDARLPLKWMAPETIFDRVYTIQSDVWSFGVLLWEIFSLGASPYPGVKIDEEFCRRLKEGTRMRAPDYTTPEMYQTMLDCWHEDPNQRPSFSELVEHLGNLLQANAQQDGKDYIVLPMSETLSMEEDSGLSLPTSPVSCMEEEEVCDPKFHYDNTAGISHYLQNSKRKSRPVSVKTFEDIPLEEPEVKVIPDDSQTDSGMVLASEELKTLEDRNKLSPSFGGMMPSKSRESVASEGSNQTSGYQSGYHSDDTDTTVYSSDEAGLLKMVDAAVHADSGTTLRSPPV

N#C/C(=C\c1cc(O)c(O)c(Br)c1)S(=O)(=O)/C(C#N)=C/c1cc(O)c(O)c(Br)c1 [Compound 12, (E)-2-[1-cyano-2-(5-bromo-3,4-dihydroxyphenyl)ethenylsulfonyl]-3-(3-bromo-4,5-dihydroxyphenyl)acrylonitrile]
inhibition, CALU-6 (in words) (Calu-6; 20 mg/kg/day): no detectable inhibition | IC50 (FLK-1 receptor): 7.1 µM

CC(C)(C)c1cc(/C=C(/C#N)c2[nH]nc(N)c2C#N)cc(C(C)(C)C)c1O [Compound 4, (E)-2-[(3-amino-4-cyano)pyrazo-5-yl]-3-(3,5-di-t-butyl-4-hydroxyphenyl)acrylonitrile]
inhibition, CALU-6 (in words) (Calu-6; 20 mg/kg/day): no significant inhibition | IC50 (FLK-1 receptor): 8.9 µM

N#CC(C#N)=Cc1cc(O)c(O)c(I)c1 [Compound 2, (E)-2-cyano-3-(3-iodo-4,5-hydroxyphenyl)acrylonitrile]
inhibition, CALU-6 (in words) (Calu-6; 20 mg/kg/day): no detectable inhibition | inhibition, CALU-6 (in words) (Calu-6; 40 mg/kg/day): no detectable inhibition

c1ccc(-c2cnc3cc4ccccc4cc3n2)cc1 [Compound 23, 2-phenyl-1,4-diaza-anthracene]
inhibition, CALU-6 (Calu-6; 20 mg/kg/day): 41% | IC50 (FLK-1 receptor): 4.4 µM

Cc1oncc1C(=O)Nc1ccc(C(F)(F)F)cc1 [Compound 40, leflunomide]
inhibition, CALU-6 (Calu-6; 20 mg/kg/day): 63.9% | inhibition of the growth of human lung (Calu-6) (Calu-6; in words): effectively inhibited the growth | % Inhibition (day) (Calu-6; nu/nu, 20 mg/kg/day, day 28, P < 0.0001): 64% | % Inhibition (day) (A375; SCID (day 9), 15 mg/kg/day, P < 0.002): 53% | inhibition of the growth of human melanoma (A375) (A375; in words): effectively inhibited the growth | % Inhibition (day) (A375; nu/nu, 20 mg/kg/day, P < 0.03): 53% | inhibition of the growth of human ovarian (PA-1) (PA-1; in words): effectively inhibited the growth | % Inhibition (day) (PA-1; nu/nu, 20 mg/kg/day, day 36, P < 0.04): 53% | % Inhibition (day) (PC-3; SCID (day 15), 12 mg/kg/day, day 36, P < 0.001): 47% | inhibition of the growth of human prostate (PC-3) (PC-3; in words): effectively inhibited the growth | % Inhibition (day) (PC-3; nu/nu, 20 mg/kg/day, day 45, P < 0.01): 71% | IC50 (FLK-1 receptor): 54 µM

CC(C)c1cc(/C=C(\C#N)C(=O)NCCCc2ccccc2)cc(C(C)C)c1O [Compound 5]
inhibition of the "reddening" response and subsequent swelling [1]: inhibited the "reddening" response and subsequent swelling | IC50 (FLK-1 receptor): 0.7 µM

COc1cc2ncnc(Nc3ccc(I)cc3)c2cc1OC [Compound 15, 4-(4-iodophenylamino)-6,7-dimethoxy quinazoline]
inhibition of the "reddening" response and subsequent swelling [1]: inhibited the "reddening" response and subsequent swelling
